Among the data in patent US20220305115A1 (JANSSEN SCIENCES IRELAND UNLIMITED COMPANY, priority 2019, published 2022) are AC50 and EC50 values, retold here.

One may read the AC50 as the midpoint of the concentration-response curve, whichever way the signal moves. Read a low AC50 as greater potency. One may read the EC50 as the concentration needed to bring the measured effect to its halfway point.

Common to all, as to format: cell-based
One assay relates to TNFα. Kind of assay: PBMC cytokine profiling assay, TNFα induction. The conditions noted are these: Homo sapiens, 24 h, human PBMCs, 24 hours incubation. On the procedure: (§1) Compounds were dissolved and stored in DMSO (Sigma-Aldrich, St. Louis, Mo.) at 10 mM concentration.
(§2) Cryopreserved human PBMCs isolated from healthy donors were purchased from StemCell Technologies (Vancouver, Canada). Cell culture medium used was RPMI with L-Glutamine (Mediatech, Manassas, Va.) supplemented with 10% fetal bovine serum (Hyclone, GE Healthcare, Logan, Utah) and Penicillin-Streptomycin (Mediatech). Human TNFα, IL12p40, and IFNα2a 384-well Assay capture plates, standards, buffers and processing reagents were obtained from MesoScale Discovery Technologies (MSD; Rockville, Md.).
(§3) Cryopreserved human PBMCs (1×10e8 cells/ml) were thawed at 37° C. and resuspended in 25 mL warm cell culture medium. The cells were pelleted at 200×g (Beckman Avanti J-E) for 5 min and resuspended in 20 mL of fresh culture media. Cells were counted using a Cellometer (Nexcelcom Bioscience), adjusted to 2×10e6 cells, and incubated for 2 hours in an incubator set at 37° C., 5% CO2 to recover from cryopreservation. […]
(§4) Using a Biomek FX 384 well pipetting station (Beckman), conditioned culture medium (CCM) from the assay plate was transferred to MSD capture plates customized for each cytokine. […] MSD Read Buffer diluted to 2× in deionized water and 35 μL/well was added via Biomek FX instrument. The plates were read immediately in a MSD6000 reader. […]

The next assay concerns IL12p40. Kind of assay: PBMC cytokine profiling assay, IL12-p40 induction. The conditions noted are these: Homo sapiens, 24 h, human PBMCs, 24 hours incubation. The protocol:
as §1, §2, §3, §4

Another assay concerns IFNα. The assay can be described thus: PBMC cytokine profiling assay, IFNα induction. The settings on record: Homo sapiens, 24 h, human PBMCs, 24 hours incubation. On the procedure:
as §1, §2, §3, §4

A further assay deals with T1, human TLR8 (Homo sapiens, UniProt Q9NR97).
T1 construct: host or cells: HEK-Blue human TLR8 cells (HEK293-derived reporter line)
T1 sequence (Q9NR97 27-1041): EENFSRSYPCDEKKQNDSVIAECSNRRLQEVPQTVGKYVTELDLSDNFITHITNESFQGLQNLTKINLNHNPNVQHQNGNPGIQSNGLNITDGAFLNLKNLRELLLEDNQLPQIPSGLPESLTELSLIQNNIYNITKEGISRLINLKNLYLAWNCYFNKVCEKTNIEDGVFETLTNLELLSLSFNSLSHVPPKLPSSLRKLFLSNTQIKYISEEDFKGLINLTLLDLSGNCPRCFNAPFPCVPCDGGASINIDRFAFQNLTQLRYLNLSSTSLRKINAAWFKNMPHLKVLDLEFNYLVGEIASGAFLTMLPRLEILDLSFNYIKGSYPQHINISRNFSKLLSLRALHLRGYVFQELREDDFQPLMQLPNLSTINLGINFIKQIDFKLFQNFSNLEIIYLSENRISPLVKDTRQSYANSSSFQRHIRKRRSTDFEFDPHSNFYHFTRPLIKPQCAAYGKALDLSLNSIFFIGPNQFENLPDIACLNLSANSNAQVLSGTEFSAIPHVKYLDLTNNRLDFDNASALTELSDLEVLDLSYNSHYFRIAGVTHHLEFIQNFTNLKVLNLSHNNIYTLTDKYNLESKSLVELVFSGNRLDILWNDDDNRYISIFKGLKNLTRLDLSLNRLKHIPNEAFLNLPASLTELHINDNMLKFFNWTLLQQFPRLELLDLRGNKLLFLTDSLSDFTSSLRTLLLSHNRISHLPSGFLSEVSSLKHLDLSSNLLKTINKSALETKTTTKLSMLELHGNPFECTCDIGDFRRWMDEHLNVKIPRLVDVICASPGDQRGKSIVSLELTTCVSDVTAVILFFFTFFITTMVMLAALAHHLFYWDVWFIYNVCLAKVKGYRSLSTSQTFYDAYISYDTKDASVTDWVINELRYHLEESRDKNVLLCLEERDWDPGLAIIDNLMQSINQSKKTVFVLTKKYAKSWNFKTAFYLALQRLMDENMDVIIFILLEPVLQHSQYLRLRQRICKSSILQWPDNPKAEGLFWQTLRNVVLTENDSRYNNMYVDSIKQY
Kind of assay: HEK-Blue human TLR8 cell SEAP reporter assay (NF-κB activation). The settings on record: HEK-Blue human TLR8 cells, stimulation for 20 hours, Quanti Blue read at 640 nm. An excerpt: (§5) For TLR8 and TLR7 activity testing, HEK-Blue human TLR8 or TLR7 cells (Invivogen, San Diego, Calif., USA) are used, respectively. These cells are designed for studying the stimulation of human TLR8 or TLR7 by monitoring the activation of NF-κB. A SEAP (secreted embryonic alkaline phosphatase) reporter gene is placed under the control of the IFN-b minimal promoter fused to five NF-κB and AP-1-binding sites. Therefore the reporter expression is regulated by the NF-κB promoter upon stimulation of human TLR8 or TLR7 for 20 hours. The cell culture supernatant SEAP reporter activity was determined using Quanti Blue kit (Invivogen, San Diego, Ca, USA) at a wavelength of 640 nm, a detection medium that turns purple/blue in the presence of alkaline phosphatase. EC50 values were determined using Activity Base analysis (ID Business Solution, Limited).
A general note: Reporter assays use an easily measured gene product as a stand-in for the process of interest.

The target in another assay is T2, human TLR7 (Homo sapiens, UniProt Q9NYK1).
T2 construct: host or cells: HEK-Blue human TLR7 cells (HEK293-derived reporter line)
T2 sequence (Q9NYK1 27-1049): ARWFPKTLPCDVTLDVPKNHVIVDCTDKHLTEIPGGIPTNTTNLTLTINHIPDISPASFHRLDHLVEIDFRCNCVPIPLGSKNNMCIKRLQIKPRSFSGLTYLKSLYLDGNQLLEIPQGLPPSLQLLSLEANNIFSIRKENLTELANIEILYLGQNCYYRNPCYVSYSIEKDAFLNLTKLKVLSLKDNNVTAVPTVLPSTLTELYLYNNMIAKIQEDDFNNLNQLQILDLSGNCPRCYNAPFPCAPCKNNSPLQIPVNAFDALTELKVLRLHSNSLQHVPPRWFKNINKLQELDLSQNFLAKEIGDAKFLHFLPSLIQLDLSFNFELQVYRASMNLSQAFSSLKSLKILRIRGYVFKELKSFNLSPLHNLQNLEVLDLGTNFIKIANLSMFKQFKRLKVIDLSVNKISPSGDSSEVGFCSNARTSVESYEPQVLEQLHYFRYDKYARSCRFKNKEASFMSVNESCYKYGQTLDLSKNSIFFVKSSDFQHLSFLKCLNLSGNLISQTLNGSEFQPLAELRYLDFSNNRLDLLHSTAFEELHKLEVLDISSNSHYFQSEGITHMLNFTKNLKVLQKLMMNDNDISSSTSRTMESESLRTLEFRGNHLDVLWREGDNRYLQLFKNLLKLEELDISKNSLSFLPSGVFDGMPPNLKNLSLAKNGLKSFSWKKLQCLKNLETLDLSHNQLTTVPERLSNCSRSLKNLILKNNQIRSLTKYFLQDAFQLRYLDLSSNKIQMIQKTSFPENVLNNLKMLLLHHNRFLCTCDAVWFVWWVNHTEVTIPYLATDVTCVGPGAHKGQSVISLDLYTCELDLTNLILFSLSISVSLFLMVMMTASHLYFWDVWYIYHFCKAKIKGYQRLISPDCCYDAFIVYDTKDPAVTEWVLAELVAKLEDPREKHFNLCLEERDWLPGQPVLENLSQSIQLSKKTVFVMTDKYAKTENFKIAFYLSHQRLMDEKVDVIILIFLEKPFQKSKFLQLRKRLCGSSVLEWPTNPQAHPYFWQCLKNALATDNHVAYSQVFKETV
The assay can be described thus: HEK-Blue human TLR7 cell SEAP reporter assay (NF-κB activation). The settings on record: HEK-Blue human TLR7 cells, stimulation for 20 hours, Quanti Blue read at 640 nm.
Text: as §5

In the case of `CCCC[C@@H](Nc1nc(N)nc2cccnc12)[C@H](C)O` [Compound 86], the AC50 was 2900 nM with TNFα, 2400 nM in the assay with IL12p40 and 37400 nM with IFNα.

For the molecule `CCCN(CCC)C(=O)C1=Cc2ccc(-c3cccnc3)cc2N=C(N)C1` [VTX-133, reference compound], the values for the EC50 on human TLR8 and on human TLR7 were 77 nM and 1860 nM, respectively.

Take `CCCN(CCC)C(=O)C1=Cc2ccc(-c3cncnc3)cc2N=C(N)C1` [VTX-135, reference compound]: the figures for the EC50 at human TLR8 and at human TLR7 were 39 nM and 3610 nM, respectively.
